One experiment deals with Human M3 receptor (Homo sapiens, UniProt P20309). The settings on record: read-out: M3 binding affinity.
The target in a further experiment is Human β2 adrenoceptor (Homo sapiens, UniProt P07550). The settings on record: read-out: B2 binding affinity.

Structures can show the parent of a compound that is named as a salt.

Among the data in patent US9579314B2 (priority 2015, dated 2017) are IC50 values, retold here.

Sequence of Human M3 receptor (P20309 whole entry): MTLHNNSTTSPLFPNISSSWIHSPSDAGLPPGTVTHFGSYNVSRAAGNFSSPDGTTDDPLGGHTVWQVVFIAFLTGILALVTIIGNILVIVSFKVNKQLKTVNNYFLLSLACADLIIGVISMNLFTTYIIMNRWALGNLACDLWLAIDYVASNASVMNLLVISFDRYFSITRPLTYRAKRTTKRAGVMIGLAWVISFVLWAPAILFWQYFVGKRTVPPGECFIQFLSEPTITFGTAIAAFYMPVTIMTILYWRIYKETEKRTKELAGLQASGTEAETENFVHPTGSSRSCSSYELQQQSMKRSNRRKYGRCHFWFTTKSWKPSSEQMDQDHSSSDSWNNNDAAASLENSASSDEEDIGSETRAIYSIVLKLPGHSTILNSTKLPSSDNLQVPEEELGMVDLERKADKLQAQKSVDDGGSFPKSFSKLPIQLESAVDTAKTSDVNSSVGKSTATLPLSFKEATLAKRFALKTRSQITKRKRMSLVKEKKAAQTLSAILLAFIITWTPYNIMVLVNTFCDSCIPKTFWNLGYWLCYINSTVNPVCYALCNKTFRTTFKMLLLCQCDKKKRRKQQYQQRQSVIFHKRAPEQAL
Sequence of Human β2 adrenoceptor (P07550 whole entry): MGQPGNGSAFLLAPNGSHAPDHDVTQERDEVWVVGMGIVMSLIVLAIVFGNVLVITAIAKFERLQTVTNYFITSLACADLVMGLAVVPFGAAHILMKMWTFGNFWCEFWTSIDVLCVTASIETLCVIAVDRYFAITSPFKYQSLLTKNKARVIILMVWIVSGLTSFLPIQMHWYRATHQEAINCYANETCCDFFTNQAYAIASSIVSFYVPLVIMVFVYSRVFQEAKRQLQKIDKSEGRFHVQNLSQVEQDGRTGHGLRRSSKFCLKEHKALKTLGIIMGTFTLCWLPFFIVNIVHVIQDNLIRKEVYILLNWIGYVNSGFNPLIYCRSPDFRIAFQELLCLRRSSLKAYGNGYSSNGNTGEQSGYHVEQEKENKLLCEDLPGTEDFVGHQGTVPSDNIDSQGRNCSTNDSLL

Regarding `O=C(NCCCOc1cccc([C@](O)(C(=O)OCC2CCN(C3CCC3)CC2)c2ccccc2)c1)c1ccc(CNC[C@H](O)c2ccc(O)c3[nH]c(=O)ccc23)cc1` [Compound 161, (1-cyclobutylpiperidin-4-yl)methyl (S)-2-hydroxy-2-(3-(3-(4-((((R)-2-hydroxy-2-(8-hydroxy-2-oxo-1,2-dihydroquinolin-5-yl)ethyl)amino)methyl)benzamido)propoxy)phenyl)-2-phenylacetate], the values for the IC50 at Human M3 receptor and on Human β2 adrenoceptor were 0.3 to 3 nM and < 0.3 nM, respectively.
Consider `O=C(COc1cccc([C@](O)(C(=O)OCC2CCN(Cc3ccccc3)CC2)c2ccccc2)c1)NCCNC(=O)c1ccc(CCNC[C@H](O)c2ccc(O)c3[nH]c(=O)ccc23)cc1` [Compound 103, (1-benzylpiperidin-4-yl)methyl (S)-2-hydroxy-2-(3-(2-((2-(4-(2-(((R)-2-hydroxy-2-(8-hydroxy-2-oxo-1,2-dihydroquinolin-5-yl)ethyl)amino)ethyl)benzamido)ethyl)amino)-2-oxoethoxy)phenyl)-2-phenylacetate], for which the IC50 at Human M3 receptor was < 0.3 nM; at Human β2 adrenoceptor, 0.3 to 3 nM.
In the case of `COc1cc(C(=O)NCc2ccc(COc3cccc([C@](O)(C(=O)OCC4CCN(Cc5ccccc5)CC4)c4ccccc4)c3)cc2)ccc1CNC[C@H](O)c1ccc(O)c2[nH]c(=O)ccc12` [Compound 42F, (1-benzylpiperidin-4-yl)methyl (S)-2-hydroxy-2-(3-((4-((4-((((R)-2-hydroxy-2-(8-hydroxy-2-oxo-1,2-dihydroquinolin-5-yl)ethyl)amino)methyl)-3-methoxybenzamido)methyl)benzyl)oxy)phenyl)-2-phenylacetate], the results for the IC50 at Human M3 receptor and at Human β2 adrenoceptor were 0.3 to 3 nM and < 0.3 nM, respectively.
`O=C(Nc1cccc(C(O)(C(=O)OCC2CCN(Cc3ccccc3)CC2)c2ccccc2)c1)OCCCCCNC[C@H](O)c1ccc(O)c2[nH]c(=O)ccc12` (stereo partly drawn) [Compound 54, (1-benzylpiperidin-4-yl)methyl 2-hydroxy-2-(3-((((5-(((R)-2-hydroxy-2-(8-hydroxy-2-oxo-1,2-dihydroquinolin-5-yl)ethyl)amino)pentyl)oxy)carbonyl)amino)-phenyl)-2-phenylacetate bis hydrochloride]: the values for the IC50 on Human M3 receptor and on Human β2 adrenoceptor were 0.3 to 3 nM and < 0.3 nM, respectively.
On to `O=C(N[C@@H]1CCCN(C(=O)COc2cccc([C@](O)(C(=O)OCC3CCN(Cc4ccccc4)CC3)c3ccccc3)c2)C1)c1ccc(CCNC[C@H](O)c2ccc(O)c3[nH]c(=O)ccc23)cc1` [Compound 113, (1-benzylpiperidin-4-yl)methyl (S)-2-hydroxy-2-(3-(2-((R)-3-(4-(2-(((R)-2-hydroxy-2-(8-hydroxy-2-oxo-1,2-dihydroquinolin-5-yl)ethyl)amino)ethyl)benzamido)piperidin-1-yl)-2-oxoethoxy)phenyl)-2-phenylacetate], for which the IC50 at Human M3 receptor and on Human β2 adrenoceptor was 0.3 to 3 nM throughout.
As for `CN1CCC(COC(=O)[C@@](O)(c2ccccc2)c2cccc(OCCCCCNC[C@H](O)c3ccc(O)c4[nH]c(=O)ccc34)c2)CC1` [Compound 24, (R)-(1-methylpiperidin-4-yl)methyl 2-hydroxy-2-(3-((5-(((R)-2-hydroxy-2-(8-hydroxy-2-oxo-1,2-dihydroquinolin-5-yl)ethyl)amino)pentyl)oxy)phenyl)-2-phenylacetate], the IC50 on Human M3 receptor is > 3 nM; at Human β2 adrenoceptor it was < 0.3 nM.
For the compound `CCc1cccc(C(O)(C(=O)OCC2CCN(Cc3ccccc3)CC2)c2cccc(OCCCCCNC[C@H](O)c3ccc(O)c4[nH]c(=O)ccc34)c2)c1` (stereo partly drawn) [Compound 11, (1-benzylpiperidin-4-yl)methyl 2-(3-ethylphenyl)-2-hydroxy-2-(3-((5-(((R)-2-hydroxy-2-(8-hydroxy-2-oxo-1,2-dihydroquinolin-5-yl)ethyl)amino)pentyl)oxy)phenyl)acetate], the IC50 on Human M3 receptor and at Human β2 adrenoceptor was < 0.3 nM each time.
On to `O=C(COc1cccc([C@](O)(C(=O)OCC2CCN(Cc3ccccc3)CC2)c2ccccc2)c1)N[C@H]1C[C@H](NC(=O)c2ccc(CNC[C@H](O)c3ccc(O)c4[nH]c(=O)ccc34)c(O)c2)C1` [Compound 127, (1-Benzylpiperidin-4-yl)methyl (S)-2-hydroxy-2-(3-(2-(((1R,3S)-3-(3-hydroxy-4-((((R)-2-hydroxy-2-(8-hydroxy-2-oxo-1,2-dihydroquinolin-5-yl)ethyl)amino)methyl)-benzamido)cyclobutyl)amino)-2-oxoethoxy)phenyl)-2-phenylacetate], for which the IC50 at Human M3 receptor and on Human β2 adrenoceptor was < 0.3 nM in each case.
As for `O=C(NCCOc1cccc([C@@](O)(C(=O)OCC2CCN(Cc3ccccc3)CC2)c2ccccc2)c1)c1ccc(CCNC[C@H](O)c2ccc(O)c3[nH]c(=O)ccc23)cc1` [Compound 34, (R)-(1-benzylpiperidin-4-yl)methyl 2-hydroxy-2-(3-(2-(4-(2-(((R)-2-hydroxy-2-(8-hydroxy-2-oxo-1,2-dihydroquinolin-5-yl)ethyl)amino)ethyl)benzamido)ethoxy)phenyl)-2-phenylacetate], the IC50 at Human M3 receptor was > 3 nM; on Human β2 adrenoceptor, 0.3 to 3 nM.
On the same counts, the results for `O=C(COc1cccc([C@](O)(C(=O)OCC2CCN(Cc3ccccc3)CC2)c2ccccc2)c1)N[C@H]1CC[C@H](C(=O)N2CCC(CNC[C@H](O)c3ccc(O)c4[nH]c(=O)ccc34)CC2)CC1` [Compound 149, (1-benzylpiperidin-4-yl)methyl (S)-2-hydroxy-2-(3-(2-(((1R,4S)-4-(4-((((R)-2-hydroxy-2-(8-hydroxy-2-oxo-1,2-dihydroquinolin-5-yl)ethyl)amino)methyl)piperidine-1-carbonyl)cyclohexyl)amino)-2-oxoethoxy)phenyl)-2-phenylacetate] are < 0.3 nM and 0.3 to 3 nM.
Consider `O=C(c1ccc(CCNC[C@H](O)c2ccc(O)c3[nH]c(=O)ccc23)cc1)N1CC(COc2cccc([C@](O)(C(=O)OCC3CCN(Cc4ccccc4)CC3)c3ccccc3)c2)C1` [Compound 42, (S)-(1-benzylpiperidin-4-yl)methyl 2-hydroxy-2-(3-((1-(4-(2-(((R)-2-hydroxy-2-(8-hydroxy-2-oxo-1,2-dihydroquinolin-5-yl)ethyl)amino)ethyl)benzoyl)azetidin-3-yl)methoxy)phenyl)-2-phenylacetate], for which the IC50 at Human M3 receptor and on Human β2 adrenoceptor was < 0.3 nM each time.
For the compound `COc1c(CNC[C@H](O)c2ccc(O)c3[nH]c(=O)ccc23)ccc(C(=O)NCCCOc2cccc([C@](O)(C(=O)OCC3CCN(Cc4ccccc4)CC3)c3ccccc3)c2)c1F` [Compound 32F, (S)-(1-benzylpiperidin-4-yl)methyl 2-(3-(3-(2-fluoro-4-((((R)-2-hydroxy-2-(8-hydroxy-2-oxo-1,2-dihydroquinolin-5-yl)ethyl)amino)methyl)-3-methoxybenzamido)propoxy)phenyl)-2-hydroxy-2-phenylacetate], the IC50 on Human M3 receptor is 0.3 to 3 nM; at Human β2 adrenoceptor, < 0.3 nM.
Turning to `O=C(NC1CCN(C(=O)COc2cccc([C@](O)(C(=O)OCC3CCN(Cc4ccccc4)CC3)c3ccccc3)c2)CC1)c1ccc(CCNC[C@H](O)c2ccc(O)c3[nH]c(=O)ccc23)cc1` [Compound 92, (1-benzylpiperidin-4-yl)methyl (S)-2-hydroxy-2-(3-(2-(4-(4-(2-(((R)-2-hydroxy-2-(8-hydroxy-2-oxo-1,2-dihydroquinolin-5-yl)ethyl)amino)ethyl)benzamido)piperidin-1-yl)-2-oxoethoxy)phenyl)-2-phenylacetate], the IC50 at Human M3 receptor and on Human β2 adrenoceptor was < 0.3 nM throughout.
For `CC(C)Oc1cc(C(=O)N[C@H]2C[C@H](NC(=O)COc3cccc([C@](O)(C(=O)OCC4CCN(Cc5ccccc5)CC4)c4ccccc4)c3)C2)ccc1CNC[C@H](O)c1ccc(O)c2[nH]c(=O)ccc12` [Compound 143, (1-benzylpiperidin-4-yl)methyl (S)-2-hydroxy-2-(3-(2-(((1R,3S)-3-(4-((((R)-2-hydroxy-2-(8-hydroxy-2-oxo-1,2-dihydroquinolin-5-yl)ethyl)amino)methyl)-3-isopropoxybenzamido)cyclobutyl)amino)-2-oxoethoxy)phenyl)-2-phenylacetate], the IC50 on Human M3 receptor and on Human β2 adrenoceptor was 0.3 to 3 nM each time.
As to `O=C(COc1cccc([C@](O)(C(=O)OCC2CCN(Cc3ccccc3)CC2)c2ccccc2)c1)N[C@H]1C[C@H](NC(=O)c2ccc(CNC[C@H](O)c3ccc(O)c4[nH]c(=O)ccc34)c(Cl)c2)C1` [Compound 135, (1-benzylpiperidin-4-yl)methyl (S)-2-(3-(2-(((1R,3S)-3-(3-chloro-4-((((R)-2-hydroxy-2-(8-hydroxy-2-oxo-1,2-dihydroquinolin-5-yl)ethyl)amino)methyl)benzamido)cyclobutyl)amino)-2-oxoethoxy)phenyl)-2-hydroxy-2-phenylacetate], the IC50 at Human M3 receptor was 0.3 to 3 nM; at Human β2 adrenoceptor, < 0.3 nM.
In the case of `O=C(COc1cccc([C@](O)(C(=O)OCC2CCN(Cc3ccccc3)CC2)c2ccccc2)c1)N[C@H]1CCCN(C(=O)c2ccc(CCNC[C@H](O)c3ccc(O)c4[nH]c(=O)ccc34)cc2)C1` [Compound 106, (1-benzylpiperidin-4-yl)methyl (S)-2-hydroxy-2-(3-(2-(((S)-1-(4-(2-(((R)-2-hydroxy-2-(8-hydroxy-2-oxo-1,2-dihydroquinolin-5-yl)ethyl)amino)ethyl)benzoyl)piperidin-3-yl)amino)-2-oxoethoxy)phenyl)-2-phenylacetate], the IC50 at Human M3 receptor and at Human β2 adrenoceptor was 0.3 to 3 nM in each case.
Consider `O=C(COc1cccc([C@](O)(C(=O)OCC2CCN(Cc3ccccc3)CC2)c2ccccc2)c1)N1CCC(CCNC[C@H](O)c2ccc(O)c3[nH]c(=O)ccc23)CC1` [Compound 36A, (1-benzylpiperidin-4-yl)methyl (S)-2-hydroxy-2-(3-(2-(4-(2-(((R)-2-hydroxy-2-(8-hydroxy-2-oxo-1,2-dihydroquinolin-5-yl)ethyl)amino)ethyl)piperidin-1-yl)-2-oxoethoxy)phenyl)-2-phenylacetate], for which the IC50 at Human M3 receptor and at Human β2 adrenoceptor was 0.3 to 3 nM in each case.
